Measurements reported in paper PMC13426457, “Cryo-EM structures of apo, agonist- and antagonist-bound heteromeric kainate receptors” (Science Advances, 2026).

Target: T1, GluK2 (Rattus norvegicus, UniProt P42260, A518T/I567V/C576V/C595S)
T1 construct: gene Grik2
T1 sequence (P42260 32-908 A518T/I567V/C576V/C595S): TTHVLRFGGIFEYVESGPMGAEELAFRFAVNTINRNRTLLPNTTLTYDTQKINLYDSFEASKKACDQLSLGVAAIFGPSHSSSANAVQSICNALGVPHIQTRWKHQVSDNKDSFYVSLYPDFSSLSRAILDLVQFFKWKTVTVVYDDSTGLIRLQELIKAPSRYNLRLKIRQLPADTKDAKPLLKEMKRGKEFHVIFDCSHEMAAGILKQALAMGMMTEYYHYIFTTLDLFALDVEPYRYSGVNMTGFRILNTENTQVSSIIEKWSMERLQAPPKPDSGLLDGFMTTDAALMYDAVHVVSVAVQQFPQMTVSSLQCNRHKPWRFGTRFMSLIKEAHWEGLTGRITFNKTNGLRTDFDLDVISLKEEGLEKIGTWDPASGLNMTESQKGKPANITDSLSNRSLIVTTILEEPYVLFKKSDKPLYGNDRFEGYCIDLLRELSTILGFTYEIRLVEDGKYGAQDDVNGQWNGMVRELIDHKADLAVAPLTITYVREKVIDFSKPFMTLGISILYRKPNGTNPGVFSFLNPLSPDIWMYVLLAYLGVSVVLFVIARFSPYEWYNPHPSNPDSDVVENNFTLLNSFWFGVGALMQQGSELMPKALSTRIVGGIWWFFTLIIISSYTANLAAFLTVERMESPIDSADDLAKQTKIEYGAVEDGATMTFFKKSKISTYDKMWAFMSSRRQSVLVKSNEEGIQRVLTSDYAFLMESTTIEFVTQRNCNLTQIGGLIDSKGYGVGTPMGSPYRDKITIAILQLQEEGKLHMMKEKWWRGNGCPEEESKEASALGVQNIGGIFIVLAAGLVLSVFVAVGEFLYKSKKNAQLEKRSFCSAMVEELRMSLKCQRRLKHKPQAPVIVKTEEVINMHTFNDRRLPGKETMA
T1 sequence (Q63273 with tags, fused parts or gaps T501A/C559V/C578S/C619I/C813A partner): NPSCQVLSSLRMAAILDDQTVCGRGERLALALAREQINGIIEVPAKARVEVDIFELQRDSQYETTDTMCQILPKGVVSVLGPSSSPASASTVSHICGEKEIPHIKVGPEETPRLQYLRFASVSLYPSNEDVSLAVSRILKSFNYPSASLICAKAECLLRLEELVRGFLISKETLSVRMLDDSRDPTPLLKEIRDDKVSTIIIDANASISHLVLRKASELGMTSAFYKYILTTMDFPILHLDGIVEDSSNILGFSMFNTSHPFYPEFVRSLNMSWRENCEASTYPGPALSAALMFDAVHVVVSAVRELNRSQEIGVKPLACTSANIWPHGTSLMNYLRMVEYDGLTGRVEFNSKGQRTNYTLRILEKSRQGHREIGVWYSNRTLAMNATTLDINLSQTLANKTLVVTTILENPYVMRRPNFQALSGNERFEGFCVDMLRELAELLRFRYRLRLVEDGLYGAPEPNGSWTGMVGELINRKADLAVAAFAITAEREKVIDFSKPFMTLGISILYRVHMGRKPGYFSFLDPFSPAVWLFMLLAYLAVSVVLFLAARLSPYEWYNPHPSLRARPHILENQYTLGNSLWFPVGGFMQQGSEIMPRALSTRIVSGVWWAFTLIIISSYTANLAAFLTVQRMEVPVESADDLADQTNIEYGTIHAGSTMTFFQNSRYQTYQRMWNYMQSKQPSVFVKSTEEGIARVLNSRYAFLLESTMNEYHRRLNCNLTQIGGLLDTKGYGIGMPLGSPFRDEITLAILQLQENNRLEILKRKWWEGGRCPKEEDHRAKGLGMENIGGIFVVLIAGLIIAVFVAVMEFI

In the case of `Cc1cn(C[C@H](N)C(=O)O)c(=O)n(Cc2ccsc2C(=O)O)c1=O` [UBP310, (S)-1-(2-amino-2-carboxyethyl)-3-(2-carboxythiophene-3-yl-methyl)-5-methylpyrimidine-2,4-dione], the “% current reduction at 0.5 mM” value is reported as 56.2 ± 21.0 % current reduction at 0.5 mM.
